The experiment concerns the target T1, human TLR8 (Homo sapiens, UniProt Q9NR97).
T1 sequence (Q9NR97 27-1041): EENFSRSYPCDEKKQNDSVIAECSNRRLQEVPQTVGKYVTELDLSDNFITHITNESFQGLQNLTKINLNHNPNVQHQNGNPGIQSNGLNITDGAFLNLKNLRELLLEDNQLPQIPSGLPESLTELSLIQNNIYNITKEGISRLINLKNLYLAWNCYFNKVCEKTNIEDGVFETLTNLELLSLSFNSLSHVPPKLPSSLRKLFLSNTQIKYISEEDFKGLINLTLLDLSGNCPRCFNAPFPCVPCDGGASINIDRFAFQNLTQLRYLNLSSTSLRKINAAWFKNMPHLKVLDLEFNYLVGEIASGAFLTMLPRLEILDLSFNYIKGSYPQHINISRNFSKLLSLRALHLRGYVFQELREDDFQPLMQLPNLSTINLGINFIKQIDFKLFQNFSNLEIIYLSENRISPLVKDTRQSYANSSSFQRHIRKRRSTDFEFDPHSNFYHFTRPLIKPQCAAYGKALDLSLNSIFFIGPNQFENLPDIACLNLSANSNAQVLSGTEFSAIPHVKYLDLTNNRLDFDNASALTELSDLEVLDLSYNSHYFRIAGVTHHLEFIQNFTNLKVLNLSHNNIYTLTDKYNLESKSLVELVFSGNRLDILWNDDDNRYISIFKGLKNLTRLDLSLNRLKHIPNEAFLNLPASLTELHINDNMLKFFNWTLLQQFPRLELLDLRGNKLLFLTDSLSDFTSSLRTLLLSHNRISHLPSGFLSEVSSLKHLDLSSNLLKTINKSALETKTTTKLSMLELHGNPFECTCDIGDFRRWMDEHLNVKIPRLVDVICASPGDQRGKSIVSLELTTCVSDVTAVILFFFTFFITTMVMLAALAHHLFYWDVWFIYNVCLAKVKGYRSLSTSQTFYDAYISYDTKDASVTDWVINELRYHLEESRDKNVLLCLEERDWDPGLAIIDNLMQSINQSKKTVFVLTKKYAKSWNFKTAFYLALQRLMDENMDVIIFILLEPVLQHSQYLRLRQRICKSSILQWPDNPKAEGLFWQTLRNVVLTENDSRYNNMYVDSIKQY
Briefly: HEK293-Blue-hTLR-8 cells assay (SEAP reporter, R848 stimulation). It is filed as cell-based. To be noted: HEK293-Blue-hTLR-8 cells, R848 ligand, 20 hrs incubation; read-out: TLR8 IC50. As to the method:
The following tests were carried out in order to determine the activity of the compounds of formula (I) in HEK293-Blue-hTLR-7/8/9 cells assay.
HEK293-Blue-hTLR-8 Cells Assay:
A stable HEK293-Blue-hTLR-8 cell line was purchased from InvivoGen (Cat. #: hkb-htlr8, San Diego, California, USA). These cells were originally designed for studying the stimulation of human TLR8 by monitoring the activation of NF-κB. A SEAP (secreted embryonic alkaline phosphatase) reporter gene was placed under the control of the IFN-β minimal promoter fused to five NF-κB and AP-1-binding sites. The SEAP was induced by activating NF-κB and AP-1 via stimulating HEK-Blue hTLR8 cells with TLR8 ligands. Therefore the reporter expression was declined by TLR8 antagonist under the stimulation of a ligand, such as R848, for incubation of 20 hrs. The cell culture supernatant SEAP reporter activity was determined using QUANTI-Blue™ kit (Cat. #: rep-qb1, Invivogen, San Diego, Ca, USA) at a wavelength of 640 nm, a detection medium that turns purple or blue in the presence of alkaline phosphatase.
HEK293-Blue-hTLR8 cells were incubated at a density of 250,000˜450,000 cells/mL in a volume of 170 μL in a 96-well plate in Dulbecco's Modified Eagle's medium (DMEM) containing 4.5 g/L glucose, 50 U/mL penicillin, […], […], 2 mM L-glutamine, 10% (v/v) heat-inactivated fetal bovine serum with addition of 20 μL test compound in a serial dilution in the presence of final DMSO at 1% and 10 μL of 60 uM R848 in above DMEM, perform incubation under 37° C. in a CO2 incubator for 20 hrs. Then 20 μL of the supernatant from each well was incubated with 180 μL Quanti-blue substrate solution at 37° C. for 2 hrs and the absorbance was read at 620˜655 nm using a spectrophotometer. The signalling pathway that TLR8 activation leads to downstream NF-κB activation has been widely accepted, and therefore similar reporter assay was modified for evaluating TLR8 antagonist.

Structures are written as SMILES.

Usually IC50 stands for the concentration needed to halve the response being measured. As for `C[C@@H]1CN(c2ccc(C#N)n3nccc23)C[C@H](C(=O)NC2CCNCC2)O1` [Example 24, (2R,6R)-4-(7-cyanopyrazolo[1,5-a]pyridin-4-yl)-6-methyl-N-(4-piperidyl)morpholine-2-carboxamide], the IC50 turned out to be 37 nM. Next, `C[C@@H]1CN(c2ccc(C#N)n3nccc23)C[C@H](C(=O)NC2CC3(CNC3)C2)O1` [Example 3, (2R,6R)-N-(2-azaspiro[3.3]heptan-6-yl)-4-(7-cyanopyrazolo[1,5-a]pyridin-4-yl)-6-methyl-morpholine-2-carboxamide]: 95 nM; `CCC(C)(C)NC(=O)[C@H]1CN(c2ccc(C#N)n3nccc23)C[C@@H](C)O1` [Example 17, (2R,6R)-4-(7-cyanopyrazolo[1,5-a]pyridin-4-yl)-N-(1,1-dimethylpropyl)-6-methyl-morpholine-2-carboxamide]: 100 nM.

In the case of `C[C@@H]1CN(c2ccc(C#N)n3nccc23)C[C@H](C(=O)NC(C)(C)CO)O1` [Example 16, (2R,6R)-4-(7-cyanopyrazolo[1,5-a]pyridin-4-yl)-N-(2-hydroxy-1,1-dimethyl-ethyl)-6-methyl-morpholine-2-carboxamide], the IC50 was 210 nM.

For the compound `C[C@@H]1CN(c2ccc(C#N)n3nccc23)C[C@H](C(=O)NC2CC3COCC(C2)N3)O1` (stereo partly drawn) [Example 22, Endo-(2R,6R)-4-(7-cyanopyrazolo[1,5-a]pyridin-4-yl)-6-methyl-N-[3-oxa-9-azabicyclo[3.3.1]nonan-7-yl]morpholine-2-carboxamide], the IC50 worked out at 25 nM. In the case of `C[C@@H]1CN(c2ccc(C#N)n3nccc23)C[C@H](C(=O)N[C@H]2CC[C@@H](O)CC2)O1` [Example 20, Cis-(2R,6R)-4-(7-cyanopyrazolo[1,5-a]pyridin-4-yl)-N-(4-hydroxycyclohexyl)-6-methyl-morpholine-2-carboxamide] it was 190 nM; in that of `C[C@@H]1CN(c2ccc(C#N)n3nccc23)C[C@H](C(=O)NC23CC(CO)(C2)C3)O1` [Example 15, (2R,6R)-4-(7-cyanopyrazolo[1,5-a]pyridin-4-yl)-N-[3-(hydroxymethyl)-1-bicyclo[1.1.1]pentanyl]-6-methyl-morpholine-2-carboxamide], 710 nM. Next, `C[C@@H]1CN(c2ccc(Cl)n3nccc23)C[C@H](C(=O)NC2CCN(C)CC2)O1` [Example 38, (2R,6R)-4-(7-chloropyrazolo[1,5-a]pyridin-4-yl)-6-methyl-N-(1-methyl-4-piperidyl)morpholine-2-carboxamide]: 7 nM; `C[C@@H]1CN(c2ccc(C#N)n3nccc23)C[C@H](C(=O)Nc2ccc(C(=O)N3CCNCC3)cc2)O1` [Example 42, (2R,6R)-4-(7-cyanopyrazolo[1,5-a]pyridin-4-yl)-6-methyl-N-[4-(piperazine-1-carbonyl)phenyl]morpholine-2-carboxamide]: 62 nM. In the case of `C[C@@H]1CN(c2ccc(C#N)n3nccc23)C[C@H](C(=O)NC2CC3CCC(C2)N3)O1` (stereo partly drawn) [Example 23, Exo-(2R,6R)-N-[8-azabicyclo[3.2.1]octan-3-yl]-4-(7-cyanopyrazolo[1,5-a]pyridin-4-yl)-6-methyl-morpholine-2-carboxamide] it was 74 nM.

For `C[C@@H]1CN(c2ccc(C#N)n3nccc23)C[C@H](C(=O)NC23CC4CC(CC(C4)C2)C3)O1` [Example 12, (2R,6R)-N-(1-adamantyl)-4-(7-cyanopyrazolo[1,5-a]pyridin-4-yl)-6-methyl-morpholine-2-carboxamide], the 50% inhibitory concentration (IC50) is 320 nM. Consider `C[C@@H]1CN(c2ccc(C#N)n3nccc23)C[C@H](C(=O)N[C@H]2CNC[C@H]2F)O1` [Example 2, (2R,6R)-4-(7-cyanopyrazolo[1,5-a]pyridin-4-yl)-N-[(3S,4R)-4-fluoropyrrolidin-3-yl]-6-methyl-morpholine-2-carboxamide], for which the 50% inhibitory concentration (IC50) is 160 nM. For the compound `COCCNC(=O)[C@H]1CN(c2ccc(C#N)n3nccc23)C[C@@H](C)O1` [Example 9, (2R,6R)-4-(7-cyanopyrazolo[1,5-a]pyridin-4-yl)-N-(2-methoxyethyl)-6-methyl-morpholine-2-carboxamide], the IC50 turned out to be 860 nM. With `C[C@@H]1CN(c2ccc(C#N)n3nccc23)C[C@H](C(=O)NC2CC3CC2CN3)O1` (stereo partly drawn) [Example 36, (2R,6R)-N-(2-azabicyclo[2.2.1]heptan-5-yl)-4-(7-cyanopyrazolo[1,5-a]pyridin-4-yl)-6-methyl-morpholine-2-carboxamide], the IC50 was 830 nM. Take `C[C@@H]1CN(c2ccc(C#N)n3ncc(F)c23)C[C@H](C(=O)NC2CCN(C)CC2)O1` [Example 47, (2R,6R)-4-(7-cyano-3-fluoro-pyrazolo[1,5-a]pyridin-4-yl)-6-methyl-N-(1-methyl-4-piperidyl)morpholine-2-carboxamide]: the IC50 was 5 nM. Next, `C[C@@H]1CN(c2ccc(C#N)n3nccc23)C[C@H](C(=O)NC2CNC[C@H]2F)O1` (stereo partly drawn) [Example 5, Cis-(2R,6R)-4-(7-cyanopyrazolo[1,5-a]pyridin-4-yl)-6-methyl-N-(4-fluoropyrrolidin-3-yl) morpholine-2-carboxamide]: 47 nM; `C[C@@H]1CN(c2ccc(C#N)n3nccc23)C[C@H](C(=O)NC2CC3CCC(C2)N3C)O1` (stereo partly drawn) [Example 33, (2R,6R)-4-(7-cyanopyrazolo[1,5-a]pyridin-4-yl)-6-methyl-N-(8-methyl-8-azabicyclo[3.2.1]octan-3-yl)morpholine-2-carboxamide]: 58 nM. Next, `C[C@@H]1CN(c2ccc(C#N)n3nccc23)C[C@H](C(=O)N[C@H]2CC[C@H](O)CC2)O1` [Example 21, Trans-(2R,6R)-4-(7-cyanopyrazolo[1,5-a]pyridin-4-yl)-N-(4-hydroxycyclohexyl)-6-methyl-morpholine-2-carboxamide]: 570 nM.

As to `C[C@@H]1CN(c2ccc(C#N)n3nccc23)C[C@H](C(=O)NC2(C)CCNCC2)O1` [Example 19, (2R,6R)-4-(7-cyanopyrazolo[1,5-a]pyridin-4-yl)-6-methyl-N-(4-methyl-4-piperidyl)morpholine-2-carboxamide], the concentration for half-maximal inhibition (IC50) came to 27 nM.
